Measured values from patent US20240368163A1, “COMPOUNDS AND METHODS FOR MODULATING SPLICING” (REMIX THERAPEUTICS INC., priority 2021, published 2024).
Where two headings read alike, the source gives them in different places.

What was measured:
Format in all cases: cell-based, human
HTT [1] = experiment: Splicing RT-qPCR assay, HTT mRNA canonical junction (CJ) and alternative junction (AJ); details: for AC50: increase in AJ mRNA
Procedure, shortened: (§1)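 Splice switching is measured in A673 or K562 cells after 24 h compound exposure (maximum 10 uM, 3-fold steps). Canonical and alternative junction mRNA levels are quantified by RT-qPCR relative to housekeeper and DMSO.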

MYB [2] = experiment: Splicing RT-qPCR assay, MYB mRNA canonical junction (CJ) and alternative junction (AJ); details: for AC50: increase in AJ mRNA
Procedure, shortened: as §1

SMN2 = experiment: Splicing RT-qPCR panel, SMN2 canonical junction (CJ) mRNA; details: RT-qPCR panel, canonical junction mRNA, compound concentration having 50% response in CJ decrease, read-out: SMN2 IC50 (decrease in CJ mRNA levels)
Procedure, shortened: as §1

Target C [3] = experiment: Splicing RT-qPCR panel, Target C canonical junction (CJ) mRNA; details: RT-qPCR panel, canonical junction mRNA, compound concentration having 50% response in CJ decrease, read-out: Target C IC50 (decrease in CJ mRNA levels)
Procedure, shortened: as §1

MYB [4] = experiment: HiBiT protein abundance assay, MYB; details: Table 13A, modified K562 cells
Procedure, shortened: (§2)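 HiBiT-tagged endogenous targets in K562 cells treated 24 h at 37° C. with 10-point 3-fold dilutions (top 10 μM, DMSO ≤0.25%). Luminescence read after lytic LgBiT detection; response normalised to unmodified-cell and DMSO controls, IC50 interpolated at 50% from four-parameter logistic fit.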

HTT [5] = experiment: HiBiT protein abundance assay, HTT; details: Table 13A, modified K562 cells
Procedure, shortened: as §2

Target C [6] = experiment: HiBiT protein abundance assay, Target C; details: Table 13A, modified K562 cells
Procedure, shortened: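 HiBiT knock-in K562-derived cells seeded at 10000/well and treated with 10-point 3-fold dilutions (top final 10 μM, ≤0.25% DMSO) for 24 h at 37 °C. Lytic HiBiT luminescence normalised to unmodified-cell and DMSO controls; IC50 from 4-parameter fit at 50% abundance.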

[7] = Homo sapiens, 24 h, A673 or K562 cells, 24 hours treatment, RT-qPCR
[8] = Homo sapiens, RT-qPCR panel, canonical junction mRNA, compound concentration having 50% response in CJ decrease, read-out: HTT IC50 (decrease in CJ mRNA levels)
[9] = Homo sapiens, 24 h, decrease in CJ mRNA, A673 or K562 cells, 24 hours treatment, RT-qPCR, read-out: MYB CJ IC50
[10] = Homo sapiens, RT-qPCR panel, canonical junction mRNA, compound concentration having 50% response in CJ decrease, read-out: MYB IC50 (decrease in CJ mRNA levels)
[11] = Homo sapiens, 24 h, decrease in CJ mRNA, A673 or K562 cells, 24 hours treatment, RT-qPCR, read-out: HTT CJ IC50

| SMILES | AC50 (HTT [1]; [7]) [nM] | IC50 (HTT [1]; [8]) [nM] | IC50 (MYB [2]; [9]) [nM] | AC50 (MYB [2]; [7]) [nM] | IC50 (MYB [2]; [10]) [nM] | IC50 (SMN2; Homo sapiens) [nM] | IC50 (Target C [3]; Homo sapiens) [nM] | IC50 (MYB [4]; Homo sapiens, K562, 24 h) [nM] | IC50 (HTT [5]; Homo sapiens, K562, 24 h) [nM] | IC50 (Target C [6]; Homo sapiens, K562, 24 h) [nM] | IC50 (HTT [1]; [11]) [nM] | IC50 (HTT [1]; RT-qPCR panel, canonical junction mRNA, compound concentration having 50% response in CJ decrease, read-out: HTT IC50 (decrease in CJ mRNA levels)) [nM] | IC50 (HTT [1]; decrease in CJ mRNA, A673 or K562 cells, 24 hours treatment, RT-qPCR, read-out: HTT CJ IC50) [nM] | IC50 (MYB [2]; RT-qPCR panel, canonical junction mRNA, compound concentration having 50% response in CJ decrease, read-out: MYB IC50 (decrease in CJ mRNA levels)) [nM] | IC50 (MYB [2]; decrease in CJ mRNA, A673 or K562 cells, 24 hours treatment, RT-qPCR, read-out: MYB CJ IC50) [nM] | IC50 (SMN2) [nM] | IC50 (Target C [3]) [nM] | IC50 (MYB [4]; 24 hours) [nM] | IC50 (HTT [5]; 24 hours) [nM] | IC50 (Target C [6]; 24 hours) [nM] |
| --- | --- | --- | --- | --- | --- | --- | --- | --- | --- | --- | --- | --- | --- | --- | --- | --- | --- | --- | --- | --- |
| c1nc2c(-c3cn[nH]c3)ccc(-c3ccc(N[C@@H]4C[C@H]5COC[C@@H](C4)N5)nn3)c2s1 [Compound 354, (endo)-N-{6-[4-(1H-pyrazol-4-yl)-1,3-benzothiazol-7-yl]pyridazin-3-yl}-3-oxa-9-azabicyclo[3.3.1]nonan-7-amine] | 100 to 1000 | < 100 | 100 to 1000 | 1000 to 10000 | 100 to 1000 | < 100 | 100 to 1000 | 100 to 1000 | 100 to 1000 | 100 to 1000 |  |  |  |  |  |  |  |  |  |  |
| CN(c1ccc(-c2ccc(-c3cn[nH]c3)c3ncsc23)nn1)[C@H]1C[C@H]2COC[C@@H](C1)N2 [Compound 355] | 1000 to 10000 | 1000 to 10000 | 1000 to 10000 | 1000 to 10000 | 1000 to 10000 | 1000 to 10000 | 1000 to 10000 | 1000 to 10000 | 1000 to 10000 | 1000 to 10000 | 1000 to 10000 |  |  |  |  |  |  |  |  |  |
| c1nc2c(-c3cn[nH]c3)ccc(-c3ccc(O[C@@H]4C[C@H]5COC[C@@H](C4)N5)nn3)c2s1 [Compound 357] | < 100 | < 100 | 100 to 1000 | 100 to 1000 | 100 to 1000 | < 100 | 100 to 1000 | 100 to 1000 | < 100 | 100 to 1000 |  |  |  |  |  |  |  |  |  |  |
| c1nc2c(-c3cn[nH]c3)ccc(-c3ccc(O[C@H]4C[C@H]5COC[C@@H](C4)N5)nn3)c2s1 [Compound 358] | > 10000 | > 10000 | 1000 to 10000 | > 10000 | 1000 to 10000 | > 10000 | > 10000 | 1000 to 10000 | > 10000 | > 10000 | > 10000 |  |  |  |  |  |  |  |  |  |
| CCc1n[nH]c2c(-c3ccc(N(C)[C@@H]4C[C@H]5CC[C@@H](C4)N5)nn3)ccc(-c3cnn(C)n3)c12 [Compound 359, (1R,3S,5S)-N-{6-[3-ethyl-4-(2-methyl-1,2,3-triazol-4-yl)-1H-indazol-7-yl]pyridazin-3-yl}-N-methyl-8-azabicyclo[3.2.1]octan-3-amine] | > 10000 | > 10000 | > 10000 | > 10000 | > 10000 | > 10000 | > 10000 | 1000 to 10000 | > 10000 | > 10000 | > 10000 |  |  |  |  |  |  |  |  |  |
| c1nc2c(-c3cn[nH]c3)ccc(-c3ccc(N(C4CC4)C4C[C@H]5CC[C@@H](C4)N5)nn3)c2s1 (stereo partly drawn) [Compound 360, (exo)-N-cyclopropyl-N-{6-[4-(1H-pyrazol-4-yl)-1,3-benzothiazol-7-yl]pyridazin-3-yl}-8-azabicyclo [3.2.1] octan-3-amine] | < 100 | < 100 | 100 to 1000 | 100 to 1000 | 100 to 1000 | 100 to 1000 | 100 to 1000 | 100 to 1000 | 100 to 1000 | < 100 |  |  |  |  |  |  |  |  |  |  |
| COc1cc(-c2ccc(-c3ccc(N(C)[C@@H]4C[C@H]5CC[C@@H](C4)N5)nn3)c3[nH]ncc23)ccn1 [Compound 364, (exo)-N-{6-[4-(2-methoxypyridin-4-yl)-1H-indazol-7-yl]pyridazin-3-yl}-N-methyl-8-azabicyclo[3.2.1]octan-3-amine] | < 100 | < 100 | 100 to 1000 | < 100 | 100 to 1000 | < 100 | 100 to 1000 | < 100 | < 100 | < 100 |  |  |  |  |  |  |  |  |  |  |
| CN(c1ccc(-c2ccc(-c3ccc(=O)n(C)c3)c3cn[nH]c23)nn1)[C@@H]1C[C@H]2CC[C@@H](C1)N2 [Compound 365, 5-(7-{6-[(exo)-8-azabicyclo[3.2.1]octan-3-yl(methyl)amino]pyridazin-3-yl}-1H-indazol-4-yl)-1-methylpyridin-2-one] | 1000 to 10000 | 1000 to 10000 | > 10000 | > 10000 | > 10000 | 1000 to 10000 | 1000 to 10000 | 1000 to 10000 | 1000 to 10000 | 1000 to 10000 | 1000 to 10000 |  |  |  |  |  |  |  |  |  |
| FC1(F)CC2CC(Oc3ccc(-c4ccc(-c5cn[nH]c5)c5cn[nH]c45)nn3)CC1N2 (stereo not drawn) [Compound 374, 7-[6-({6,6-difluoro-8-azabicyclo[3.2.1]octan-3-yl}oxy)pyridazin-3-yl]-4-(1H-pyrazol-4-yl)-1H-indazole] |  |  |  |  |  |  |  |  |  |  |  | > 10000 | > 10000 | > 10000 | > 10000 | > 10000 | > 10000 | > 10000 | > 10000 | > 10000 |
| Cc1n[nH]c2c(-c3ccc(N(C)[C@@H]4C[C@H]5CC[C@@H](C4)N5)nn3)ccc(-c3cnn(C)n3)c12 [Compound 375, (1R,3S,5S)-N-methyl-N-{6-[3-methyl-4-(2-methyl-1,2,3-triazol-4-yl)-1H-indazol-7-yl]pyridazin-3-yl}-8-azabicyclo[3.2.1]octan-3-amine] | > 10000 | > 10000 | > 10000 | > 10000 | > 10000 | > 10000 | > 10000 | > 10000 | > 10000 | > 10000 | > 10000 |  |  |  |  |  |  |  |  |  |
| CC(C)(C)NC1CCN(c2ccc(-c3ccc(-n4cccn4)c4[nH]ncc34)nn2)C1 (stereo not drawn) [Compound 380, N-tert-butyl-1-{6-[7-(pyrazol-1-yl)-1H-indazol-4-yl]pyridazin-3-yl}pyrrolidin-3-amine] | 1000 to 10000 | 1000 to 10000 | 1000 to 10000 | 1000 to 10000 | 1000 to 10000 | 100 to 1000 | 1000 to 10000 | 1000 to 10000 | 1000 to 10000 | 1000 to 10000 | 1000 to 10000 |  |  |  |  |  |  |  |  |  |
| CCNC1CCN(c2ccc(-c3ccc(-c4cn[nH]c4)c4ncsc34)nn2)CC1 [Compound 410, N-ethyl-1-[6-[4-(1H-pyrazol-4-yl)-1,3-benzothiazol-7-yl]pyridazin-3-yl]piperidin-4-amine] | > 10000 | > 10000 | 1000 to 10000 | > 10000 | 1000 to 10000 | 1000 to 10000 | > 10000 | 1000 to 10000 | 1000 to 10000 | 1000 to 10000 | > 10000 |  |  |  |  |  |  |  |  |  |
| CNCC1CCN(c2ncc(-c3ccc(-c4cn[nH]c4)c4ncsc34)nn2)C1 (stereo not drawn) [Compound 411, N-methyl-1-[1-[6-[4-(1H-pyrazol-4-yl)-1,3-benzothiazol-7-yl]-1,2,4-triazin-3-yl]pyrroledin-3-yl]metha-namine] | > 10000 | 1000 to 10000 | > 10000 | > 10000 | > 10000 | 1000 to 10000 | > 10000 | > 10000 | > 10000 | > 10000 | 1000 to 10000 |  |  |  |  |  |  |  |  |  |
| CNC1CCN(c2ncc(-c3ccc(-c4cn[nH]c4)c4ncsc34)nn2)C1 (stereo not drawn) [Compound 412, N-methyl-1-[6-[4-(1H-pyrazol-4-yl)-1,3-benzothiazol-7-yl]-1,2,4-triazin-3-yl]pyrrolidin-3-amine] | 1000 to 10000 | 100 to 1000 | > 10000 | > 10000 | > 10000 | 100 to 1000 | > 10000 | 1000 to 10000 | 1000 to 10000 | 1000 to 10000 | 100 to 1000 |  |  |  |  |  |  |  |  |  |
| CN(C)C1CCN(c2ncc(-c3ccc(-c4cn[nH]c4)c4ncsc34)nn2)C1 (stereo not drawn) [Compound 413] | 100 to 1000 | 100 to 1000 | 100 to 1000 | 100 to 1000 | 100 to 1000 | 100 to 1000 | 100 to 1000 | 100 to 1000 | 100 to 1000 | 100 to 1000 | 100 to 1000 |  |  |  |  |  |  |  |  |  |
